Entries after “also recorded” stand apart in the source; their conditions may differ. Square brackets hold non-standard residues; d marks the D form. Peptide text beside a SMILES is read from it. * marks the point of attachment. X1 = O=C(O)CN(CCN(CC(=O)O)CC(=O)O)CCN(CC(=O)O)CC(=O)NCCCOCCOCCOCCCNC(=O)COCC(=O)*; Nle = CCCC[C@H](N)C(=O)O
Legend:
hMC4R [1] = biological target: T1, hMC4R (Homo sapiens, UniProt P32245); experiment: Competitive binding assay against TRF probe 19, six-well plate protocol; conditions: for Relative Potency: compared to the monovalent MSH(4) construct with the same scaffold core; for Ki lower than / inhibition higher than the corresponding monovalent molecule: divalent versus monovalent, against probe 19; for inhibition of the binding and uptake of probe 19: over the concentration range tested (10 μM–0.10 nM), probe 19 20 nM
hMC4R [2] = biological target: T1, hMC4R; conditions: saturation binding assays using older protocol (96-well plates); ref [14]; cited from earlier work

T1 sequence (P32245 whole entry): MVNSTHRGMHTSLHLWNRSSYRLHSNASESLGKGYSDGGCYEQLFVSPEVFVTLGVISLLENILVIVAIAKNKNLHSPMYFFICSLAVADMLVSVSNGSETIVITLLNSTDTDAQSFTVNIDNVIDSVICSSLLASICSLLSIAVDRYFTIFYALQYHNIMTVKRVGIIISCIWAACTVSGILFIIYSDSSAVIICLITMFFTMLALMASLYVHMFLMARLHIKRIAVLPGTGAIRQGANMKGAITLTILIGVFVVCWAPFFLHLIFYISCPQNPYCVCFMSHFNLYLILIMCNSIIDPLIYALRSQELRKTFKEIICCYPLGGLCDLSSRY

SMILES	Ki (hMC4R [1]) [nM]	Relative Potency (hMC4R [1])	Kd (hMC4R [2]) [nM]	Ki lower than / inhibition higher than the corresponding monovalent molecule (hMC4R [1]) [fold]	inhibition of the binding and uptake of probe 19 (hMC4R [1])
N=C(N)NCCC[C@H](NC(=O)[C@@H](Cc1ccccc1)NC(=O)[C@H](Cc1c[nH]cn1)NC(=O)CCCCCn1cc(CN(Cc2cn(CCCCCC(=O)N[C@@H](Cc3c[nH]cn3)C(=O)N[C@H](Cc3ccccc3)C(=O)N[C@@H](CCCNC(=N)N)C(=O)N[C@@H](Cc3c[nH]c4ccccc34)C(N)=O)nn2)Cc2cn(CCCCCC(=O)N[C@@H](Cc3c[nH]cn3)C(=O)N[C@H](Cc3ccccc3)C(=O)N[C@@H](CCCNC(=N)N)C(=O)N[C@@H](Cc3c[nH]c4ccccc34)C(N)=O)nn2)nn1)C(=O)N[C@@H](Cc1c[nH]c2ccccc12)C(N)=O [Compound 16c, 6,6′,6″-(4,4′,4″-(Nitrilotris(methylene))tris(1H-1,2,3-triazole-4,1-diyl))tris(N-((S)-1-(((R)-1-(((S)-1-(((S)-1-amino-3-(1H-indol-3-yl)-1-oxopropan-2-yl)amino)-5-guanidino-1-oxopentan-2-yl)amino)-1-oxo-3-phenylpropan-2-yl)amino)-3-(1H-imidazol-4-yl)-1-oxopropan-2-yl)hexanamide)]	36 ± 4	61			
CCCC[C@H](NC(=O)[C@H](CO)NC(=O)COCC(=O)NCCCOCCOCCOCCCNC(=O)CN(CCN(CCN(CC(=O)O)CC(=O)O)CC(=O)O)CC(=O)O)C(=O)N[C@@H](CCC(=O)O)C(=O)N[C@@H](Cc1c[nH]cn1)C(=O)N[C@H](Cc1ccccc1)C(=O)N[C@@H](CCCNC(=N)N)C(=O)N[C@@H](Cc1c[nH]c2ccccc12)C(N)=O [Compound 19, Eu-DTPA-PEGO-MSH(7)-NH2] (X1-S[Nle]EH[dF]RW-NH2)			27 ± 4		
N=C(N)NCCC[C@H](NC(=O)[C@@H](Cc1ccccc1)NC(=O)[C@H](Cc1c[nH]cn1)NC(=O)CCCCCn1cc(COc2cc(OCc3cn(CCCCCC(=O)N[C@@H](CO)C(N)=O)nn3)cc(OCc3cn(CCCCCC(=O)N[C@@H](Cc4c[nH]cn4)C(=O)N[C@H](Cc4ccccc4)C(=O)N[C@@H](CCCNC(=N)N)C(=O)N[C@@H](Cc4c[nH]c5ccccc45)C(N)=O)nn3)c2)nn1)C(=O)N[C@@H](Cc1c[nH]c2ccccc12)C(N)=O [Compound 14b, 6,6′-(4,4′-(((5-((1-(6-((1-Amino-3-hydroxy-1-oxopropan-2-yl)amino)-6-oxohexyl)-1H-1,2,3-triazol-4-yl)methoxy)-1,3-phenylene)bis(oxy))bis(methylene))bis(1H-1,2,3-triazole-4,1-diyl))bis(N-((S)-1-(((R)-1-(((S)-1-(((S)-1-amino-3-(1H-indol-3-yl)-1-oxopropan-2-yl)amino)-5-guanidino-1-oxopentan-2-yl)amino)-1-oxo-3-phenylpropan-2-yl)amino)-3-(1H-imidazol-4-yl)-1-oxopropan-2-yl)hexanamide)]	91 ± 13	11		11	
NC(=O)[C@H](CO)NC(=O)CCCCCn1cc(CN(Cc2cn(CCCCCC(=O)N[C@@H](CO)C(N)=O)nn2)Cc2cn(CCCCCC(=O)N[C@@H](CO)C(N)=O)nn2)nn1 [Compound 15a, 6,6′,6″-(4,4′,4″-(Nitrilotris(methylene))tris(1H-1,2,3-triazole-4,1-diyl))tris(N-((S)-1-amino-3-hydroxy-1-oxopropan-2-yl)hexanamide)]					did not inhibit; also recorded: not competitive inhibitors
NC(=O)[C@H](CO)NC(=O)CCCCCn1cc(COc2cc(OCc3cn(CCCCCC(=O)N[C@@H](CO)C(N)=O)nn3)cc(OCc3cn(CCCCCC(=O)N[C@@H](CO)C(N)=O)nn3)c2)nn1 [Compound 12a, 6,6′,6″-(4,4′,4″-((Benzene-1,3,5-triyltris(oxy))tris(methylene))tris(1H-1,2,3-triazole-4,1-diyl))tris(N-((S)-1-amino-3-hydroxy-1-oxopropan-2-yl)hexanamide)]					did not inhibit; also recorded: not competitive inhibitors
N=C(N)NCCC[C@H](NC(=O)[C@@H](Cc1ccccc1)NC(=O)[C@H](Cc1c[nH]cn1)NC(=O)CCCCCn1cc(CN2CCN(Cc3cn(CCCCCC(=O)N[C@@H](Cc4c[nH]cn4)C(=O)N[C@H](Cc4ccccc4)C(=O)N[C@@H](CCCNC(=N)N)C(=O)N[C@@H](Cc4c[nH]c5ccccc45)C(N)=O)nn3)CCN(Cc3cn(CCCCCC(=O)N[C@@H](Cc4c[nH]cn4)C(=O)N[C@H](Cc4ccccc4)C(=O)N[C@@H](CCCNC(=N)N)C(=O)N[C@@H](Cc4c[nH]c5ccccc45)C(N)=O)nn3)CC2)nn1)C(=O)N[C@@H](Cc1c[nH]c2ccccc12)C(N)=O [Compound 18, 6,6′,6″-(4,4′,4″-((1,4,7-Triazonane-1,4,7-triyl)tris(methylene))tris(1H-1,2,3-triazole-4,1-diyl))tris(N-((S)-1-(((R)-1-(((S)-1-(((S)-1-amino-3-(1H-indol-3-yl)-1-oxopropan-2-yl)amino)-5-guanidino-1-oxopentan-2-yl)amino)-1-oxo-3-phenylpropan-2-yl)amino)-3-(1H-imidazol-4-yl)-1-oxopropan-2-yl)hexanamide)]	25 ± 4				
N=C(N)NCCC[C@H](NC(=O)[C@@H](Cc1ccccc1)NC(=O)[C@H](Cc1c[nH]cn1)NC(=O)CCCCCn1cc(COc2cc(OCc3cn(CCCCCC(=O)N[C@@H](CO)C(N)=O)nn3)cc(OCc3cn(CCCCCC(=O)N[C@@H](CO)C(N)=O)nn3)c2)nn1)C(=O)N[C@@H](Cc1c[nH]c2ccccc12)C(N)=O [Compound 14a, 6,6′-(4,4′-(((5-((1-((6S,9R,12S)-12-((1H-Imidazol-4-yl)methyl)-1-amino-6-(((S)-1-amino-3-(1H-indol-3-yl)-1-oxopropan-2-yl)carbamoyl)-9-benzyl-1-imino-8,11,14-trioxo-2,7,10,13-tetraazanonadecan-19-yl)-1H-1,2,3-triazol-4-yl)methoxy)-1,3-phenylene)bis(oxy))bis(methylene))bis(1H-1,2,3-triazole-4,1-diyl))bis(N-(1-amino-3-hydroxy-1-oxopropan-2-yl)hexanamide)]	990 ± 140	1			
N=C(N)NCCC[C@H](NC(=O)[C@@H](Cc1ccccc1)NC(=O)[C@H](Cc1c[nH]cn1)NC(=O)CCCCCn1cc(CN(Cc2cn(CCCCCC(=O)N[C@@H](CO)C(N)=O)nn2)Cc2cn(CCCCCC(=O)N[C@@H](Cc3c[nH]cn3)C(=O)N[C@H](Cc3ccccc3)C(=O)N[C@@H](CCCNC(=N)N)C(=O)N[C@@H](Cc3c[nH]c4ccccc34)C(N)=O)nn2)nn1)C(=O)N[C@@H](Cc1c[nH]c2ccccc12)C(N)=O [Compound 16b, 6,6′-(4,4′-((((1-(6-(((S)-1-Amino-3-hydroxy-1-oxopropan-2-yl)amino)-6-oxohexyl)-1H-1,2,3-triazol-4-yl)methyl)azanediyl)bis(methylene))bis(1H-1,2,3-triazole-4,1-diyl))bis(N-((S)-1-(((R)-1-(((S)-1-(((S)-1-amino-3-(1H-indol-3-yl)-1-oxopropan-2-yl)amino)-5-guanidino-1-oxopentan-2-yl)amino)-1-oxo-3-phenylpropan-2-yl)amino)-3-(1H-imidazol-4-yl)-1-oxopropan-2-yl)hexanamide)]	69 ± 12	32		32	
